Data on four compounds can be found in US8420608B2, “Active substance combinations with insecticides and acaricide properties” (Bayer Cropscience AG, priority 2008, dated 2013).

Holding throughout (assay type): in vivo
One assay concerns Spodoptera frugiperda. Kind of assay: Spodoptera frugiperda larvae test (sprayed cabbage leaves). An excerpt: (§1) The expected action for a given combination of two active compounds can be calculated as follows, according to S. R. Colby, Weeds 15 (1967), 20-22:
(§2) If • X is the kill rate, expressed as a percentage of the untreated control, when employing active compound A at an application rate of m g/ha or in a concentration of m ppm, • Y is the kill rate, expressed as a percentage of the untreated control, when employing active compound B at an application rate of n g/ha or in a concentration of n ppm and • E is the kill rate, expressed as a percentage of the untreated control, when employing active compounds A and B at application rates of m and n g/ha or in a concentration of m and n ppm, then
(§3) If the actual insecticidal kill rate exceeds the calculated value, the kill of the combination is superadditive, i.e. a synergistic effect is present. In this case, the actually observed kill rate must exceed the value calculated using the above formula for the expected kill rate (E).
(§4) To produce a suitable preparation of active compound, 1 part by weight of active compound is mixed with the stated amounts of solvents and emulsifier, and the concentrate is diluted with emulsifier-containing water to the desired concentration.
Cabbage leaves (Brassica oleracea) are treated by spraying with the active compound preparation of the desired concentration and are populated with larvae of the army worm (Spodoptera frugiperda) while the leaves are still moist.
After the desired period of time, the kill in % is determined. 100% means that all caterpillars have been killed; 0% means that none of the caterpillars have been killed. The kill rates determined are entered into Colby's formula.

The next assay relates to Phaedon cochleariae. The assay can be described thus: Phaedon cochleariae larvae test (sprayed cabbage leaves).
Source text: as §1, §2, §3, §4
Cabbage leaves (Brassica oleracea) are treated by spraying with the active compound preparation of the desired concentration and are populated with larvae of the mustard beetle (Phaedon cochleariae) while the leaves are still moist.
After the desired period of time, the kill in % is determined. 100% means that all beetle larvae have been killed; 0% means that none of the beetle larvae have been killed. The kill rates determined are entered into Colby's formula.

For the next assay, the system named is Myzus persicae. Kind of assay: Myzus persicae test (spray on infested cabbage leaves).
Source text: as §1, §2, §3, §4
Cabbage leaves (Brassica oleracea) which are heavily infested by the green peach aphid (Myzus persicae) are treated by spraying with the active compound preparation of the desired concentration.
After the desired period of time, the kill in % is determined. 100% means that all aphids have been killed; 0% means that none of the aphids have been killed. The kill rates determined are entered into Colby's formula.

A further assay relates to Tetranychus urticae. The assay can be described thus: Tetranychus test (OP-resistant/spray treatment).
Source text: as §1, §2, §3
To produce a suitable preparation of active compound, 1 part by weight of active compound is mixed with the stated amounts of solvents and emulsifier, and the concentrate is diluted with emulsifier-containing water to the desired concentration. […]
After the desired period of time, the activity in % is determined. […]

In the case of `CCC(C)(C)C(=O)OC1=C(c2ccc(Cl)cc2Cl)C(=O)OC12CCCCC2` [spirodiclofen], the “Kill in % after 6d” value in the assay on Spodoptera frugiperda (0.8 g/ha) was found to be 0%.

As to `CCOC(=O)OC1=C(c2cc(C)ccc2C)C(=O)N[C@]12CC[C@@H](OC)CC2` [spirotetramat], the “Kill in % after 2d” value with Phaedon cochleariae (20 g/ha) is given as 0%. Besides, the “Kill in % after 6d” value with Myzus persicae (0.8 g/ha) and with Spodoptera frugiperda (0.8 g/ha) was 0% in each case.

Regarding `Cc1cc(C)c(C2=C(OC(=O)CC(C)(C)C)C3(CCCC3)OC2=O)c(C)c1` [spiromesifen], the “Kill in % after 2d” value in the assay on Tetranychus urticae (4 g/ha) amounted to 0%. In addition, the “Kill in % after 6d” value in the assay with Phaedon cochleariae (4 g/ha) worked out at 0%; in the assay on Myzus persicae (100 g/ha), 50%; in the assay with Spodoptera frugiperda (0.8 g/ha) it was 0%.

Take spinetoram: the “Kill in % after 2d” value stood at 0% in the assay with Tetranychus urticae (0.8 g/ha) and 50% in the assay with Phaedon cochleariae (4 g/ha). Moreover, the “Kill in % after 6d” value in the assay with Phaedon cochleariae (0.8 g/ha) turned out to be 50%; in the assay with Myzus persicae (0.16 g/ha) it was 0%; in the assay on Myzus persicae (20 g/ha), 0%; in the assay with Spodoptera frugiperda (0.16 g/ha) it was 83%.
